Source: patent US20100119599A1 (ARCHER PHARMACEUTICALS, INC., priority 2006, published 2010)

Key:
Aβ1-42 = assay: Measurement of Aβ1-42 in culture medium of 7W WT APP751 CHO cells by ELISA; format: cell-based, Chinese hamster; conditions: for activity at 5 µM: Cricetulus griseus, Table 1, 5 μM test compound, CHO cells stably transfected with human APP751, culture medium, ELISA, control DMSO, 0 = no detectable amount, read-out: Aβ1-42 (% of control); for Aβ1-42 (% of control): CHO cells that overexpress APP751, zero = below the detection limit of the assay
Aβ1-40 = assay: Measurement of Aβ1-40 in culture medium of 7W WT APP751 CHO cells by ELISA; format: cell-based, Chinese hamster; conditions: for activity at 5 µM: Cricetulus griseus, Table 1, 5 μM test compound, CHO cells stably transfected with human APP751, culture medium, ELISA, control DMSO, 0 = no detectable amount; for Aβ1-40 (% of control): CHO cells that overexpress APP751, zero = below the detection limit of the assay
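Further: 5 µM test compound but RI-coded compounds at 10 µM for 24 hours.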

SMILES | activity at 5 µM (Aβ1-42) | activity at 5 µM (Aβ1-40) | Aβ1-42 (% of control) (Aβ1-42) | Aβ1-40 (% of control) (Aβ1-40)
CCCCCOC(=O)C1=C(C)NC2=C(C(=O)CC(C)(C)C2)C1c1ccc(OC)cc1 (stereo not shown) [ST216606, pentyl 4-(4-methoxyphenyl)-2,7,7-trimethyl-5-oxo-1,4,6,7,8-pentahydroquinoline-3-carboxylate] | 9.56% | 1.4% |  | 
CC1=C(C(=O)OCCOc2ccccc2)C(c2ccc(F)cc2)C2=C(CCCC2=O)N1 (stereo not shown) [ST014891, 2-phenoxyethyl 4-(4-fluorophenyl)-2-methyl-5-oxo-1,4,6,7,8-pentahydroquinoline-3-carboxylate] | 39.3% | 51.8% |  | 
CCOC(=O)C1=C(C)NC2=C(C(=O)CCC2)C1c1ccccc1OCc1ccccc1 (stereo not shown) [ST013216, ethyl 2-methyl-5-oxo-4-[2-(phenylmethoxy)phenyl]-1,4,6,7,8-pentahydroquinoline-3-carboxylate] | 88.8% | 0% |  | 
CC1=C(C(=O)Nc2ccccc2C)C(c2ccco2)C(C#N)=C(SCC(=O)Nc2cccc(Cl)c2C)N1 (stereo not shown) [ST051156, N-(3-chloro-2-methylphenyl)-2-{3-cyano-4-(2-furyl)-6-methyl-5-[N-(2-methylphenyl)carbamoyl](2-1,4-dihydropyridylthio)}acetamide] |  |  | 68.02 % of control | 86.64 % of control
CC1=C(C(=O)OC(C)C)C(c2ccc(Cl)cc2)C2=C(CC(C)(C)CC2=O)N1 (stereo not shown) [ST017213, methylethyl 4-(4-chlorophenyl)-2,7,7-trimethyl-5-oxo-1,4,6,7,8-pentahydroquinoline-3-carboxylate] | 91.4% | 44.4% |  | 
COC(=O)C1=C(C)NC2=C(C(=O)CCC2)C1c1cc(F)ccc1F (stereo not shown) [ST052368, methyl 4-(2,5-difluorophenyl)-2-methyl-5-oxo-1,4,6,7,8-pentahydroquinoline-3-carboxylate] | 74.2% | 66.3% |  | 
CCOc1cc(C2C(C(=O)OCC(C)C)=C(C)NC3=C2C(=O)CC(c2ccc(Cl)cc2)C3)ccc1O (stereo not shown) [ST017117, 2-methylpropyl 7-(4-chlorophenyl)-4-(3-ethoxy-4-hydroxyphenyl)-2-methyl-5-oxo-1,4,6,7,8-pentahydroquinoline-3-carboxylate] | 81.7% | 25.7% |  | 
CCSCCOC(=O)C1=C(C)NC2=C(C(=O)CCC2)C1c1ccc(C(=O)OC)cc1 (stereo not shown) [ST017106, methyl 4-{3-[(2-ethylthioethyl)oxycarbonyl]-2-methyl-5-oxo-4-1,4,6,7,8-pentahydroquinolyl}benzoate] | 0% | 36.8% |  | 
CC1=C(C(=O)Nc2ccc(Cl)cc2)C(c2ccccc2)C(C#N)=C(SCC(=O)Nc2cccc(C)c2)N1 (stereo not shown) [ST051153, 2-{5-[N-(4-chlorophenyl)carbamoyl]-3-cyano-6-methyl-4-phenyl(2-1,4-dihydropyridylthio)}-N-(3-methylphenyl)acetamide] |  |  | 0 % of control | 4.933 % of control
CCOCCOC(=O)C1=C(C)NC2=C(C(=O)CCC2)C1c1ccc(CC)cc1 (stereo not shown) [ST013344, 2-ethoxyethyl 4-(4-ethylphenyl)-2-methyl-5-oxo-1,4,6,7,8-pentahydroquinoline-3-carboxylate] | 86.6% | 54.4% |  | 
CCOc1ccc(NC(=O)CSC2=C(C#N)C(c3cccs3)C(C(=O)Nc3ccccc3)=C(C)N2)cc1 (stereo not shown) [RI_9] |  |  | 27.6 % of control | 56.3 % of control
CC1=C(C(=O)OCCOc2ccccc2)C(c2ccc(Br)cc2)C2=C(CCCC2=O)N1 (stereo not shown) [ST014890, 2-phenoxyethyl 4-(4-bromophenyl)-2-methyl-5-oxo-1,4,6,7,8-pentahydroquinoline-3-carboxylate] | 67.5% | 13.2% |  | 
COCCOC(=O)C1=C(C)NC2=C(C(=O)CCC2)C1c1cc(Br)c(O)c(OC)c1 (stereo not shown) [ST013357, 2-methoxyethyl 4-(3-bromo-4-hydroxy-5-methoxyphenyl)-2-methyl-5-oxo-1,4,6,7,8-pentahydroquinoline-3-carboxylate] | 95.2% | 62.4% |  | 
Cc1ccsc1/C=c1\sc2n(c1=O)C(N)=C(C#N)C(c1sccc1C)C=2C#N (stereo not shown) [ST006952, 5-amino-7-(3-methyl(2-thienyl))-2-[(3-methyl(2-thienyl))methylene]-3-oxo-4,7-dihydro-1,3-thiazolidino[3,2-a]pyridine-6,8-dicarbonitrile] |  |  | 77.1 % of control | 48.24 % of control
COc1ccc(C2C(C(=O)OC3CCCCCC3)=C(C)NC3=C2C(=O)CC(C)(C)C3)c(OC)c1OC (stereo not shown) [ST024504, cycloheptyl 2,7,7-trimethyl-5-oxo-4-(2,3,4-trimethoxyphenyl)-1,4,6,7,8-pentahydroquinoline-3-carboxylate] | 0% | 0.415% |  | 
CC1=C(C(=O)Nc2ccccc2)C(c2cccs2)C(C#N)=C(SCC(=O)N2CCCCCCCCCCC2)N1 (stereo not shown) [RI_32] |  |  | 62.8 % of control | 62.9 % of control

SMILES | activity at 5 µM (Aβ1-42) | activity at 5 µM (Aβ1-40) | Aβ1-42 (% of control) (Aβ1-42) | Aβ1-40 (% of control) (Aβ1-40)
CC1=C(C(=O)OCCc2ccccc2)C(c2ccc(C)o2)C2=C(CC(C)(C)CC2=O)N1 (stereo not shown) [ST052398, 2-phenylethyl 2,7,7-trimethyl-4-(5-methyl(2-furyl))-5-oxo-1,4,6,7,8-pentahydroquinoline-3-carboxylate] | 55.6% | 44.3% |  | 
CCOCCOC(=O)C1=C(C)NC2=C(C(=O)CCC2)C1c1coc2ccccc2c1=O (stereo not shown) [ST052370, 2-ethoxyethyl 2-methyl-5-oxo-4-(4-oxochromen-3-yl)-1,4,6,7,8-pentahydroquinoline-3-carboxylate] | 69.7% | 68.6% |  | 
COC(=O)C1=C(C)NC2=C(C(=O)CC(c3ccccc3Cl)C2)C1c1cccc([N+](=O)[O-])c1 (stereo not shown) [ST015070, methyl 7-(2-chlorophenyl)-2-methyl-4-(3-nitrophenyl)-5-oxo-1,4,6,7,8-pentahydroquinoline-3-carboxylate] | 97% | 65.4% |  | 
COC(=O)C1=C(C)NC2=C(C(=O)CC(c3cccs3)C2)C1c1ccc(C)s1 (stereo not shown) [ST052308, methyl 2-methyl-4-(5-methyl(2-thienyl))-5-oxo-7-(2-thienyl)-1,4,6,7,8-pentahydroquinoline-3-carboxylate] | 74.2% | 48.4% |  | 
COC(=O)CSC1=C(C#N)C(c2cccs2)C(C(C)=O)=C(C)N1 (stereo not shown) [ST014038, methyl 2-(5-acetyl-3-cyano-6-methyl-4-(2-thienyl)-2-1,4-dihydropyridylthio)acetate] |  |  | 21.82 % of control | 29.98 % of control
CCCCOC(=O)C1=C(C)NC2=C(C(=O)CC(C)(C)C2)C1c1cc2c(cc1[N+](=O)[O-])OCO2 (stereo not shown) [ST216053, butyl 2,7,7-trimethyl-4-(6-nitro(2H-benzo[d]1,3-dioxolen-5-yl))-5-oxo-1,4,6,7,8-pentahydroquinoline-3-carboxylate] | 6.37% | 22.2% |  | 
CC1=C(C(=O)OC2CCCCC2)C(c2ccccc2OCc2ccccc2)C2=C(CCCC2=O)N1 (stereo not shown) [ST013271, cyclohexyl 2-methyl-5-oxo-4-[2-(phenylmethoxy)phenyl]-1,4,6,7,8-pentahydroquinoline-3-carboxylate] | 39.9% | 6.92% |  | 
CCOC(=O)C1=C(C)NC2=C(C(=O)CCC2)C1c1ccc(N(C)C)cc1 (stereo not shown) [ST013066, ethyl 4-[4-(dimethylamino)phenyl]-2-methyl-5-oxo-1,4,6,7,8-pentahydroquinoline-3-carboxylate] | 96.7% | 68.4% |  | 
COc1ccc(C2CC(=O)C3=C(C2)NC(C)=C(C(=O)OCc2ccccc2)C3c2ccncc2)cc1 (stereo not shown) [ST017266, phenylmethyl 7-(4-methoxyphenyl)-2-methyl-5-oxo-4-(4-pyridyl)-1,4,6,7,8-pentahydroquinoline-3-carboxylate] | 64.6% | 65.5% |  | 
COc1cccc(C2C(C(=O)OC(C)C)=C(C)NC3=C2C(=O)CC(c2ccc(Cl)cc2)C3)c1OC (stereo not shown) [ST017324, methylethyl 4-(2,3-dimethoxyphenyl)-7-(4-chlorophenyl)-2-methyl-5-oxo-1,4,6,7,8-pentahydroquinoline-3-carboxylate] | 99.2% | 30.2% |  | 
N#CC1=C(N)N(c2ccc(F)cc2)C2=C(C(=O)CC(c3ccccc3)C2)C1c1ccsc1 (stereo not shown) [ST040993, 2-amino-1-(4-fluorophenyl)-5-oxo-7-phenyl-4-(3-thienyl)-1,4,6,7,8-pentahydroquinoline-3-carbonitrile] | 46.9% | 65.7% |  | 
CC1=C(C(=O)Nc2ccccc2)C(c2ccsc2)C(C#N)=C(S)N1 (stereo not shown) [RI_29] |  |  | 100 % of control | 79.7 % of control
CCCCOC(=O)C1=C(C)NC2=C(C(=O)CC(C)(C)C2)C1c1ccc(Cl)cc1 (stereo not shown) [ST024431, butyl 4-(4-chlorophenyl)-2,7,7-trimethyl-5-oxo-1,4,6,7,8-pentahydroquinoline-3-carboxylate] | 0% | 0% |  | 
CCCOCCOC(=O)C1=C(C)NC2=C(C(=O)CC(C)(C)C2)C1c1ccc(Cl)c(Cl)c1 (stereo not shown) [ST052446, 2-propoxyethyl 4-(3,4-dichlorophenyl)-2,7,7-trimethyl-5-oxo-1,4,6,7,8-pentahydroquinoline-3-carboxylate] | 45.2% | 58.1% |  | 
COC(=O)C1=C(C)N(C)C(C)=C(C(=O)OC)C1c1cccc(Oc2ccccc2)c1 [ST024552, methyl 5-(methoxycarbonyl)-1,2,6-trimethyl-4-(3-phenoxyphenyl)-1,4-dihydropyridine-3-carboxylate] |  |  | 74.81 % of control | 57.26 % of control
CCCCOC(=O)C1=C(C)NC2=C(C(=O)CCC2)C1c1ccc(Cl)cc1 (stereo not shown) [ST017175, butyl 4-(4-chlorophenyl)-2-methyl-5-oxo-1,4,6,7,8-pentahydroquinoline-3-carboxylate] | 34.5% | 59.8% |  | 
